Our source for the IC50 values is patent publication US20210284638A1 (Saint Louis University, priority 2018, published 2021).

Holding throughout (format): binding
The target of assay [1] is T1, Recombinant human integrin αvβ1 (Homo sapiens, UniProt P05556+P06756).
T1 construct: purchased R&D Systems 6579-AV
As to the kind of experiment: Solid Phase Receptor Assay (SPRA) for αVβ1 function. The settings on record: plate-bound human fibronectin. Here is the method:
B. Solid Phase Receptor Assay (SPRA) for αVβ1 Function
(§1) Wells were washed 3 times with 150 μL TBS+ and then 150 μL of blocking buffer (TBS+ with 1% bovine serum albumin, Sigma A7906) was added. The plate was incubated for 1 hr at 37° C. and then washed 3× with TBS+ buffer. […] Compounds were diluted to 20 μM and 1 μL was added to each well of the plate according to a standard template with each sample repeated in triplicate. After incubation for two hours at room temperature, the plate was washed 3× with 150 μL of TBS+ buffer. To each well, 50 μL of biotinylated anti-αV antibody (R&D Systems, BAF1219) at 1 μg/mL in TBS+/0.1% BSA were added and the plate covered and incubated for 1 hr at room temperature. After washing the plate 3× with 150 μL of TBS+ buffer, 50 μL of streptavidin-conjugated horseradish peroxidase (R&D Systems, DY998) diluted in TBS+ blocking buffer were added to the wells and the plate incubated for 20 min at room temperature. The plate was washed 3× with TBS+ buffer followed by 50 μL of TMB substrate (Sigma, T4444) added to each well in the dark and the plate incubated for 25 min at room temperature. 25 μL of 1.0 M phosphoric acid was added as a stop solution and the plates were read at 450 nm using a Spectramax plate reader.

The target of assay [2] is T2, Recombinant human integrin αVβ6 (Homo sapiens, UniProt P06756+P18564).
T2 construct: purchased R&D Systems 3817-AV
T2 sequence (P06756 31-992 limits assumed): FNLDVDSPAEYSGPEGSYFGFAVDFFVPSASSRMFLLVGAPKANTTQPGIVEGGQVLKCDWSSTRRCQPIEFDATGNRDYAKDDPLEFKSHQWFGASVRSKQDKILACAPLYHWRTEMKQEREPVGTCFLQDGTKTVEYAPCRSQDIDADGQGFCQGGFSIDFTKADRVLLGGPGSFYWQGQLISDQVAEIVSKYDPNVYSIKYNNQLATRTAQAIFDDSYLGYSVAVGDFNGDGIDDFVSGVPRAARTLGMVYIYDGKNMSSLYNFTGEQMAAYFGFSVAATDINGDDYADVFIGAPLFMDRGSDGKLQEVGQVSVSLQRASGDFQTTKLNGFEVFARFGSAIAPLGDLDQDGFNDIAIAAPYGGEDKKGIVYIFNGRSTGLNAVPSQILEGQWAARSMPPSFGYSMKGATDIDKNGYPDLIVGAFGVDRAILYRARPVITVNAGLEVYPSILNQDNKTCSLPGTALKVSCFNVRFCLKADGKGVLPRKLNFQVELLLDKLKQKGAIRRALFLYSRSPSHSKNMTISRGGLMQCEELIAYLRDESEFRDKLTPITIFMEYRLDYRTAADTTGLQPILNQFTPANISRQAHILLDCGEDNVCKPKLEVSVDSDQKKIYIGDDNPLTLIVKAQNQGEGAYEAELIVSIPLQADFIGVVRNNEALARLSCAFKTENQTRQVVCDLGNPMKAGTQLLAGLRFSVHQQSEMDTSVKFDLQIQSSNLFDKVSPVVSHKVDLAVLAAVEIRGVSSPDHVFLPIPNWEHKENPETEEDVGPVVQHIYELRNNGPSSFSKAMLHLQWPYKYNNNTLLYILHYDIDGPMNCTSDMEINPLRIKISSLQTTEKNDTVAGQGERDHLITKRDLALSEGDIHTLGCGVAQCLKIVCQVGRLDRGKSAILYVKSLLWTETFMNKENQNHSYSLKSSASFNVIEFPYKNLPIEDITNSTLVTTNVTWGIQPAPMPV
T2 sequence (P18564 22-707 limits assumed): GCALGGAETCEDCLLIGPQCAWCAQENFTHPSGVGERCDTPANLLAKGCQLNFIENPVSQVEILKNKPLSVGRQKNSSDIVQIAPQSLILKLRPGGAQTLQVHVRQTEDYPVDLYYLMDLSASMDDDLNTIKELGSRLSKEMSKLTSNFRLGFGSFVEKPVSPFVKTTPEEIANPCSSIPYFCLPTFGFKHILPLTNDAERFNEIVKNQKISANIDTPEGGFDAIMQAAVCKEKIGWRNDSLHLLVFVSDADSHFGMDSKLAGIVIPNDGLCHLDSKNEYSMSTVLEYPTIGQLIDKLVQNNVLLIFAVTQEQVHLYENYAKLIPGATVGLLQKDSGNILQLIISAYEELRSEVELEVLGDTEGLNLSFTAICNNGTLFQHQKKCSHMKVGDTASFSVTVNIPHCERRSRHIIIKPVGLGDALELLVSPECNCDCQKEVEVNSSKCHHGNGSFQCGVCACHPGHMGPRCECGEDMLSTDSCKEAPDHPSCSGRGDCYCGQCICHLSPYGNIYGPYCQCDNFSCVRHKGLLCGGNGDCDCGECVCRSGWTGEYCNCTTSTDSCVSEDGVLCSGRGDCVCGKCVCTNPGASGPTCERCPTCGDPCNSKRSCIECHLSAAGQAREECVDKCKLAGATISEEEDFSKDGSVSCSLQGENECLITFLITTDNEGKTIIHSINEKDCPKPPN
As to the kind of experiment: Solid Phase Receptor Assay (SPRA) for αVβ6 function. The settings on record: plate-bound human LAP. Here is the method:
E. Solid Phase Receptor Assay (SPRA) for αVβ6 Function
Wells were washed 3 times with 150 μL TBS+, and then 150 μL of blocking buffer (TBS+ with 1% bovine serum albumin, Sigma A7906) was added. The plate was incubated for 1 hr at 37° C., and then washed 3× with TBS+ buffer. […] Compounds were diluted to 20 μM and then 1 μL was added to each well of the plate according to a standard template with each sample repeated in triplicate. After incubation for two hours at room temperature, the plate was washed 3× with 150 μL of TBS+ buffer. To each well, 50 μL of biotinylated anti-αV antibody (R&D Systems, BAF1219) at 0.5 μg/mL in TBS+/0.1% BSA were added and the plate was covered and incubated for 1 hr at room temperature. After washing the plate 3× with 150 μL of TBS+ buffer, 50 μL of streptavidin-conjugated horseradish peroxidase (R&D Systems, DY998) diluted in TBS+ blocking buffer were added to the wells and the plate incubated for 20 min at room temperature. The plate was washed 3× with TBS+ buffer followed by 50 μL of TMB substrate (Sigma T4444) added to each well in the dark and the plate incubated for 10 min at room temperature. 25 μL of 1.0 M phosphoric acid was added as a stop solution and the plates were read at 450 nm using a Spectramax plate reader.

In assay [3] the target is T3, Recombinant human integrin αVβ8 (Homo sapiens, UniProt P06756+P26012).
T3 construct: purchased R&D Systems 4135-AV
T3 sequence (P06756 31-992 limits assumed): as the sequence (P06756 31-992 limits assumed) above
T3 sequence (P26012 43-684 limits assumed): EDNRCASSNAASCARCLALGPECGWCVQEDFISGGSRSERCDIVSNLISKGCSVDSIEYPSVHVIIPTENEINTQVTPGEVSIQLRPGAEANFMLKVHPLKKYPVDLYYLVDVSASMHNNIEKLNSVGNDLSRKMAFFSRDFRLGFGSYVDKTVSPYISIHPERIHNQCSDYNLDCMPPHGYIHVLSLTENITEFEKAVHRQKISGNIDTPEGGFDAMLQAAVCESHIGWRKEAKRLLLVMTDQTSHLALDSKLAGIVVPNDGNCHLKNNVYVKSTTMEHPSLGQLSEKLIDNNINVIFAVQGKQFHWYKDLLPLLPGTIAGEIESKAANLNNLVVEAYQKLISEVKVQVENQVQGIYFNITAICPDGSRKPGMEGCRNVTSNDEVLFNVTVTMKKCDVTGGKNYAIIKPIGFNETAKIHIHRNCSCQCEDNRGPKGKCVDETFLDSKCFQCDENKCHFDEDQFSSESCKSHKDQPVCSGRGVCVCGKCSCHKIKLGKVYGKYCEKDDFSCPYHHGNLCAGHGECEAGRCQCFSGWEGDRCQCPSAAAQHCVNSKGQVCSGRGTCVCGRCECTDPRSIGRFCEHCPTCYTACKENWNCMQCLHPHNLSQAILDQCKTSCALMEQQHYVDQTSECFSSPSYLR
Briefly: Solid Phase Receptor Assay for αVβ8 function. The settings on record: plate-bound human LAP; read-out: αVβ8 SPRA IC50. Here is the method: F. Solid Phase Receptor Assay (SFRA) for αVβ8 Function
Wells were washed 3 times with 150 μL TBS+ and then 150 μL of blocking buffer (TBS+ with 1% bovine serum albumin, Sigma A7906) was added. The plate was incubated for 1 hr at 37° C. and then washed 3× with TBS+. […] Compounds were diluted to 20 μM and 1 μL was added to each well of the plate according to a standard template with each sample repeated in triplicate. After incubation for two hours at room temperature, the plate was washed 3× with 150 μL of TBS+. To each well, 50 μL of biotinylated anti-αV antibody (R&D Systems, BAF1219) at 1 μg/mL in TBS+/0.1% BSA were added and the plate was covered and incubated for 1 hr at room temperature. After washing the plate 3× with 150 μL of TBS+ buffer, 50 μL of streptavidin-conjugated horseradish peroxidase (R&D Systems, DY998) diluted in TBS+ blocking buffer were added to the wells and the plate incubated for 20 min at room temperature. The plate was washed 3× with TBS+ followed by 50 μL of TMB substrate (Sigma T4444) added to each well in the dark and the plate incubated for 10 min at room temperature. 25 μL of 1.0 M phosphoric acid was added as a stop solution and the plates were read at 450 nm using a Spectramax plate reader.

Assay [4] deals with T4, Recombinant human integrin α5β1 (Homo sapiens, UniProt P05556+P08648).
T4 construct: purchased R&D Systems 3230-A5
T4 sequence (P08648 42-995 limits assumed): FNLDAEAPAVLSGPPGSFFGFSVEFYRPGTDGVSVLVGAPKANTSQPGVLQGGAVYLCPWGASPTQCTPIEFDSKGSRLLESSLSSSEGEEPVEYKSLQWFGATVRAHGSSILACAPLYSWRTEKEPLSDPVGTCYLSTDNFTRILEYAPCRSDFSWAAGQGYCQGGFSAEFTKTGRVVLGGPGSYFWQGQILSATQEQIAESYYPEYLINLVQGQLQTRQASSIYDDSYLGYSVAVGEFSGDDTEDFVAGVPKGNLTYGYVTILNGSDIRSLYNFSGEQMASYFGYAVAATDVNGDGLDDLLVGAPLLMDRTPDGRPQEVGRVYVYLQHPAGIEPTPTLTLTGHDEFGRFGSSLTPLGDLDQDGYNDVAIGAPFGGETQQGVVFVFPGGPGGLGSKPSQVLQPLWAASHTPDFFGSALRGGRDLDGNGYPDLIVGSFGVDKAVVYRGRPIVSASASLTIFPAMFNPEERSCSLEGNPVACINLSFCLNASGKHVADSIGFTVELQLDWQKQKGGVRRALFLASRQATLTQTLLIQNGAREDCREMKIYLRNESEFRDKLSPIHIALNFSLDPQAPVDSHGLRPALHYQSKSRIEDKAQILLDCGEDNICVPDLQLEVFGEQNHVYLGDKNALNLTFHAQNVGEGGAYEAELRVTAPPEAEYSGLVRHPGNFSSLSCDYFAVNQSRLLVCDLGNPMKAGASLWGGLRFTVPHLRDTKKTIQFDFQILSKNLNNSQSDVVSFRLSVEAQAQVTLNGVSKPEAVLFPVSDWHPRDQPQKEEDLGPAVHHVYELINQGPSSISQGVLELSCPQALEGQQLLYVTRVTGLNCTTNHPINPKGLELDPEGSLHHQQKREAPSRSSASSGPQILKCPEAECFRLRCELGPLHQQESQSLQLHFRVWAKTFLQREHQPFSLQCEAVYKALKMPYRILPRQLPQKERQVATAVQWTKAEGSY
T4 sequence (P05556 21-728 limits assumed): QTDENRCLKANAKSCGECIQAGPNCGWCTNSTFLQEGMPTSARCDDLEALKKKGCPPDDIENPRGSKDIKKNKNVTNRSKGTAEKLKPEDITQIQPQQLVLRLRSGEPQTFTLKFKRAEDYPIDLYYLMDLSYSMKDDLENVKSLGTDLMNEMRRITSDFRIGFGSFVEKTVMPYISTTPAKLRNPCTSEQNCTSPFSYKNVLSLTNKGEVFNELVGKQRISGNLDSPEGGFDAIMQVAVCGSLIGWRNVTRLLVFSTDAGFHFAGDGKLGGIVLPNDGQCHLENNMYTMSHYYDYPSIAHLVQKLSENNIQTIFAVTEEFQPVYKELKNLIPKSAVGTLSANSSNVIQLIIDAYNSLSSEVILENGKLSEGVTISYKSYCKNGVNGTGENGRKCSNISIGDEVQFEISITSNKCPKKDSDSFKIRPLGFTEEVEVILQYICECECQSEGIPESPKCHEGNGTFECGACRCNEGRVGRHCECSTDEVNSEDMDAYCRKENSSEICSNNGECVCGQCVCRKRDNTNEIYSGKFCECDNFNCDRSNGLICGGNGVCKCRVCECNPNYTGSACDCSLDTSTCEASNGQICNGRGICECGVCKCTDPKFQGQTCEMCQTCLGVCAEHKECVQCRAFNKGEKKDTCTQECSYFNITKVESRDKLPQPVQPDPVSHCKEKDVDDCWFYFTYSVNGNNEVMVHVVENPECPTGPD
As to the kind of experiment: Solid Phase Receptor Assay (SPRA) for α5β1 function. The settings on record: plate-bound human fibronectin. The protocol: A. Solid Phase Receptor Assay (SPRA) for α5β1 Function
as §1, with “μM and then 1 μL” for “μM and 1 μL”, “of biotinylated anti-α5 antibody (R&D” for “of biotinylated anti-αV antibody (R&D”, “(R&D Systems, BAF1864) at 0.5” for “(R&D Systems, BAF1219) at 1”, “BAF1864) at 0.5 μg/mL in” for “BAF1219) at 1 μg/mL in”, “μL of room temperature TMB substrate” for “μL of TMB substrate”

T1 sequence (P06756 31-992 limits assumed): as the sequence (P06756 31-992 limits assumed) above
T1 sequence (P05556 21-728 limits assumed): as the sequence (P05556 21-728 limits assumed) above

The term IC50 denotes the midpoint of a concentration-inhibition curve. For the compound `O=C(O)CC(Cc1cc(OCCc2ccc3c(n2)NCCC3)[nH]n1)c1cccc(F)c1` (stereo not shown) [CC2, reference compound], the IC50 in assay [1] worked out at 0.019 µM; in assay [2] it was 0.054 µM; in assay [3] it was 0.68 µM; in assay [4], 0.77 µM.
In the case of `COCC1(c2cc(C(CC(=O)O)Cc3cc(OCCc4ccc5c(n4)NCCC5)n(C)n3)cc(C(C)(C)C)c2)CCOCC1` (stereo not shown) [Example 1, 3-[3-tert-butyl-5-[4-(methoxymethyl)tetrahydropyran-4-yl]phenyl]-4-[1-methyl-5-[2-(5,6,7,8-tetrahydro-1,8-naphthyridin-2-yl)ethoxy]pyrazol-3-yl]butanoic acid], the IC50 came out at 0.006 µM in assay [1], 0.2 µM in assay [2], 0.027 µM in assay [3] and 0.002 µM in assay [4].
`CC(C)c1cc(C#N)cc(C(CC(=O)O)Cc2cc(OCCc3ccc4c(n3)NCCC4)n(C)n2)c1` (stereo not shown) [Example 2, 3-(3-cyano-5-isopropylphenyl)-4-(1-methyl-5-(2-(5,6,7,8-tetrahydro-1,8-naphthyridin-2-yl)ethoxy)-1H-pyrazol-3-yl)butanoic acid trifluoroacetic acid]: the IC50 in assay [1] worked out at 0.009 µM; in assay [2], 0.02 µM; in assay [3], 0.007 µM; in assay [4], 0.007 µM.
For the compound `Cn1nc(CC(CC(=O)O)c2cc(Br)cc(S(F)(F)(F)(F)F)c2)cc1OCCc1ccc2c(n1)NCCC2` (stereo not shown) [Example 3, 3-[3-bromo-5-(pentafluoro-sulfanyl)phenyl]-4-[1-methyl-5-[2-(5,6,7,8-tetrahydro-1,8-naphthyridin-2-yl)ethoxy]pyrazol-3-yl]butanoic acid], the concentration for half-maximal inhibition (IC50) is 0.012 µM in assay [1], 0.054 µM in assay [2], 0.013 µM in assay [3] and 0.031 µM in assay [4].
For `CC(C)c1cc(C(C)C)cc(C(CC(=O)O)Cc2cc(OCCc3ccc4c(n3)NCCC4)n(C)n2)c1` (stereo not shown) [Example 4, 3-(3,5-diisopropylphenyl)-4-[1-methyl-5-[2-(5,6,7,8-tetrahydro-1,8-naphthyridin-2-yl)ethoxy]pyrazol-3-yl]butanoic acid], the IC50 stood at 0.007 µM in assay [1], 0.084 µM in assay [2], 0.018 µM in assay [3] and 0.004 µM in assay [4].
Take `Cn1nc(CC(CC(=O)O)c2cc(C(C)(C)C)cc(C(C)(C)C(F)(F)F)c2)cc1OCCc1ccc2c(n1)NCCC2` (stereo not shown) [Example 5, 3-(3-(tert-butyl)-5-(1,1,1-trifluoro-2-methylpropan-2-yl)phenyl)-4-(1-methyl-5-(2-(5,6,7,8-tetrahydro-1,8-naphthyridin-2-yl)ethoxy)-1H-pyrazol-3-yl) butanoic acid]: the IC50 was found to be 0.004 µM in assay [1], 0.46 µM in assay [2], 0.02 µM in assay [3] and 0.002 µM in assay [4].
Consider `Cn1nc(CC(CC(=O)O)c2cc(C(C)(C)C)cc(C3(C(F)F)CC3)c2)cc1OCCc1ccc2c(n1)NCCC2` (stereo not shown) [Example 6, 3-(3-(tert-butyl)-5-(1-(difluoromethyl)cyclopropyl)phenyl)-4-(1-methyl-5-(2-(5,6,7,8-tetrahydro-1,8-naphthyridin-2-yl)ethoxy)-1H-pyrazol-3-yl)butanoic acid], for which the IC50 turned out to be 0.005 µM in assay [1], 0.14 µM in assay [2], 0.015 µM in assay [3] and 0.006 µM in assay [4].
As to `Cn1nc(CC(CC(=O)O)c2cc(C(C)(C)C)cc(C(C)(C)CO)c2)cc1OCCc1ccc2c(n1)NCCC2` (stereo not shown) [Example 7, 3-[3-tert-butyl-5-(2-hydroxy-1,1-dimethyl-ethyl)phenyl]-4-[1-methyl-5-[2-(5,6,7,8-tetrahydro-1,8-naphthyridin-2-yl)ethoxy]pyrazol-3-yl]butanoic acid], the IC50 in assay [1] turned out to be 0.003 µM; in assay [2], 0.3 µM; in assay [3] it was 0.018 µM; in assay [4], 0.001 µM.
Regarding `Cn1nc(CC(CC(=O)O)c2cc(Cl)cc(C(C)(C)C#N)c2)cc1OCCc1ccc2c(n1)NCCC2` (stereo not shown) [Example 8, 3-(3-chloro-5-(2-cyanopropan-2-yl)phenyl)-4-(1-methyl-5-(2-(5,6,7,8-tetrahydro-1,8-naphthyridin-2-yl)ethoxy)-1H-pyrazol-3-yl)butanoic acid], the IC50 in assay [1] was 0.002 µM; in assay [2], 0.036 µM; in assay [3] it was 0.003 µM; in assay [4], 0.003 µM.
Take `Cn1nc(CC(CC(=O)O)c2cc(C(C)(C)C)cc(C(C)(C)C#N)c2)cc1OCCc1ccc2c(n1)NCCC2` (stereo not shown) [Example 9, 3-[3-tert-butyl-5-(1-cyano-1-methyl-ethyl)phenyl]-4-[1-methyl-5-[2-(5,6,7,8-tetrahydro-1,8-naphthyridin-2-yl)ethoxy]pyrazol-3-yl]butanoic acid]: the IC50 in assay [1] was 0.002 µM; in assay [2], 0.15 µM; in assay [3], 0.008 µM; in assay [4], 0.001 µM.
Regarding `COc1c(C(C)(C)C)cc(C(CC(=O)O)Cc2cc(OCCc3ccc4c(n3)NCCC4)n(C)n2)cc1C(C)(C)C` (stereo not shown) [Example 10, 3-(3,5-di-tert-butyl-4-methoxyphenyl)-4-(1-methyl-5-(2-(5,6,7,8-tetrahydro-1,8-naphthyridin-2-yl)ethoxy)-1H-pyrazol-3-yl)butanoic acid], the concentration for half-maximal inhibition (IC50) in assay [1] was 0.004 µM; in assay [2], 0.13 µM; in assay [3] it was 0.092 µM; in assay [4] it was 0.015 µM.
`COc1c(C(CC(=O)O)Cc2cc(OCCc3ccc4c(n3)NCCC4)n(C)n2)cc(C(C)(C)C)cc1C(C)(C)C` (stereo not shown) [Example 11, 3-(3,5-di-tert-butyl-2-methoxyphenyl)-4-(1-methyl-5-(2-(5,6,7,8-tetrahydro-1,8-naphthyridin-2-yl)ethoxy)-1H-pyrazol-3-yl)butanoic acid]: the IC50 was determined as 0.8 µM in assay [1], 11 µM in assay [2], 0.74 µM in assay [3] and 15 µM in assay [4].
On to `COc1c(Br)cc(C(C)(C)C)cc1C(CC(=O)O)Cc1cc(OCCc2ccc3c(n2)NCCC3)n(C)n1` (stereo not shown) [Example 12, 3-(3-bromo-5-(tert-butyl)-2-methoxyphenyl)-4-(1-methyl-5-(2-(5,6,7,8-tetrahydro-1,8-naphthyridin-2-yl)ethoxy)-1H-pyrazol-3-yl)butanoic acid], for which the IC50 is 0.013 µM in assay [1], 0.18 µM in assay [2], 0.017 µM in assay [3] and 0.18 µM in assay [4].
